Here are results for nine compounds from patent US8507539B2, “Potassium channel blockers and uses thereof” (Bionomics Limited, priority 2008, dated 2013).

Structures are written as SMILES. Where two headings read alike, the source gives them in different places. Bounds are passed on as bounds.

Holding throughout (assay type): cell-based
The target in experiment [1] is T1, hKv1.5 (Homo sapiens, UniProt P22460).
T1 construct: expressed in transfected cells
The experiment in a line: Whole-cell patch-clamp inhibition of Kv1.5 currents in CHO cells stably transfected with hKv1.5. As to conditions: from IC50 values, CHO-hKv1.5 vs CHO-hKv1.3. How it is done:
(§1) The effectiveness of the generated compounds in blocking the Kv1.3 current was assayed on CHO cells stably expressing hKv1.3. Cells were grown in F12 Kaighns' medium supplemented with 10% fetal calf serum, 2 mM L-glutamine, 1 mM Na^+ pyruvate, 100 units/ml penicillin, 100 Fg/ml streptomycin and 500 μg/ml G418 (to keep them under selection pressure). Kv1.3 currents were measured using the whole-cell configuration of the patch-clamp technique and were evoked by 500 ms depolarising voltage pulses to +40 mV from a holding potential of −80 mV at 30 sec intervals. Cells were continuously bathed in Ringers solution containing (mM): 160 NaCl, 4.5 KCl, 2.5 CaCl2, 1 MgCl2, 10 HEPES, pH 7.4, 290-310 mOsm. The internal (pipette) solution contained (mM): 134 KF, 2 MgCl2, 10 HEPES, 10 EGTA (pH 7.2, 290-310 mOsm). Series resistance compensation (60-80%) was applied when the peak current amplitude exceeded 2 nA. Compounds initially dissolved in DMSO were diluted in bath solution (final DMSO concentration 0.5%) and applied directly to the recording chamber at increasing concentrations allowing ample time for steady state block to be achieved between each concentration. Each compound was tested at 4-5 different concentrations in triplicate. IC50 values were determined by fitting the average normalised reduction of the current integral to the Hill equation.
(§2) IC50 values for inhibition of Kv1.3 currents were determined as described above. IC50 values for inhibition of Kv1.1 and Kv1.5 currents were determined by the method above using Chinese Hamster Ovary (CHO) cells stably transfected with hKv1.1 and hKv1.5.
Background: The patch-clamp technique gives a direct electrical read-out from membranes.

The target of experiment [2] is hKv1.3 (Homo sapiens, UniProt P22001). The experiment in a line: Whole-cell patch-clamp block of Kv1.3 current in CHO cells stably expressing hKv1.3. How it is done:
as §1

Experiment [3] addresses T2, hKv1.1 (Homo sapiens, UniProt Q09470).
T2 construct: expressed in transfected cells
The experiment in a line: Whole-cell patch-clamp inhibition of Kv1.1 currents in CHO cells stably transfected with hKv1.1. As to conditions: from IC50 values, CHO-hKv1.1 vs CHO-hKv1.3. How it is done: as §1, §2

Where [4] appears, read: CHO cells stably expressing hKv1.3, whole-cell patch clamp, reported as ranges, read-out: IC50 (Kv1.3).
The mark [5] stands for this setting: IC50 for inhibition of Kv1.3 currents, CHO-hKv1.3, read-out: Potency for Kv1.3.

T1 sequence (P22460 whole entry): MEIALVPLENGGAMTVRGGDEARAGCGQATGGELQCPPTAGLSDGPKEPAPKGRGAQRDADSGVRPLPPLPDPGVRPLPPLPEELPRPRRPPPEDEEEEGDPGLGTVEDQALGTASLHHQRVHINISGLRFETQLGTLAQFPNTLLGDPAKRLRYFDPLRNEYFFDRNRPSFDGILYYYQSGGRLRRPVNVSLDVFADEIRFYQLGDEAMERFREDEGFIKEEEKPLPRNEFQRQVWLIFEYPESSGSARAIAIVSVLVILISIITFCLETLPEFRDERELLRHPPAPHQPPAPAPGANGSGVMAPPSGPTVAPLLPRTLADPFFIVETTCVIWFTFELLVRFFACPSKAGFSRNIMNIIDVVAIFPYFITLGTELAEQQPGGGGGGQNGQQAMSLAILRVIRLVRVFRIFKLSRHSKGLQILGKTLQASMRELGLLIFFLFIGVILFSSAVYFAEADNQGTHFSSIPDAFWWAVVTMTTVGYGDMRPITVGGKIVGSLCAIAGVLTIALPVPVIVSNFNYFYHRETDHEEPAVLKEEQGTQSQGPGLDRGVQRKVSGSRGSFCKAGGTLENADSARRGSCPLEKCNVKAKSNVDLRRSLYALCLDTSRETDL
T2 sequence (Q09470 whole entry): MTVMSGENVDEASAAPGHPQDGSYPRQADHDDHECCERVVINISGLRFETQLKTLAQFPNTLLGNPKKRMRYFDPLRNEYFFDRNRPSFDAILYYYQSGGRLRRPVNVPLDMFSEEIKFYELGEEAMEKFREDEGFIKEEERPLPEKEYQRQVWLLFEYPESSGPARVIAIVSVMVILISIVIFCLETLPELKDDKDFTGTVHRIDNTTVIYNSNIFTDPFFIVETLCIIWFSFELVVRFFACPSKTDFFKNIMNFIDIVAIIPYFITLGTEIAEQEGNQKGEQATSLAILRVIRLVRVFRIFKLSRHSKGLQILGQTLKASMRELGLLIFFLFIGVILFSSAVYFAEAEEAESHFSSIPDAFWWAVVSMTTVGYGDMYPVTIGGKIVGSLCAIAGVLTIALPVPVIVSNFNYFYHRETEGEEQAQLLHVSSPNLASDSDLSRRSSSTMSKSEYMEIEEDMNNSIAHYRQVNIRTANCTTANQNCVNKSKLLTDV
Sequence of hKv1.3 (P22001 whole entry): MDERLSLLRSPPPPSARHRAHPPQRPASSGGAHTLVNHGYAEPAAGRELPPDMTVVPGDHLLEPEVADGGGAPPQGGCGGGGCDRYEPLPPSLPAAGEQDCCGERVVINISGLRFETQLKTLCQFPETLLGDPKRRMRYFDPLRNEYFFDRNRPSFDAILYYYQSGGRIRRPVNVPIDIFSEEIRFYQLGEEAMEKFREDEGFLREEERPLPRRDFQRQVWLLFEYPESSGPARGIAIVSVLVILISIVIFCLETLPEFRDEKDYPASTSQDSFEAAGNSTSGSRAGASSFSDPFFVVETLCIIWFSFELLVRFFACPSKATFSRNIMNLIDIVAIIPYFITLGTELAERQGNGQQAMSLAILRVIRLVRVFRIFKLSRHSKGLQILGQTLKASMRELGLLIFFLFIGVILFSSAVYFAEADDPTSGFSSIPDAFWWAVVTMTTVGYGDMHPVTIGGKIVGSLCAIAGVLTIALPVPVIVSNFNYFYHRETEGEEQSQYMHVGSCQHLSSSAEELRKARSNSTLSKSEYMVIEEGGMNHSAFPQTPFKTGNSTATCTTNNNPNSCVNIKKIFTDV

For the compound `CC(=O)c1c(OCCN2CCSCC2)c(OCCC(C)c2ccc(F)cc2)c2oc(C)nc2c1C` (stereo not drawn) [Example 13], the “Selectivity for Kv1.3 over Kv1.5” value in experiment [1] turned out to be 11 fold. The IC50 in experiment [2] (setting [4]) and in experiment [2] (setting [5]) was less than 50 nM each time. Also, in experiment [3], the “Selectivity for Kv1.3 over Kv1.1” value was found to be 15 fold.

Consider `CC(=O)c1c(OCCNC2CCCCC2)c(OCCC(C)c2ccc(F)cc2)c2oc(C)nc2c1C` (stereo not drawn) [Example 18, 5-Acetyl-6-(2-cyclohexylamino-ethoxy)-7-[3-(4-fluorophenyl)butoxy]-2,4-dimethyl-benzooxazole], for which, in experiment [1], the “Selectivity for Kv1.3 over Kv1.5” value worked out at 12 fold. Also, the IC50 in experiment [2] (setting [4]) and in experiment [2] (setting [5]) was less than 50 nM throughout. Further, the “Selectivity for Kv1.3 over Kv1.1” value in experiment [3] is on record as 11 fold.

Regarding `CC(=O)c1c(OCCN2CCCC(F)(F)C2)c(OCCC(C)c2ccc(F)cc2)c2oc(C(F)F)nc2c1C` (stereo not drawn) [Example 31b, 5-Acetyl-7-[3-(4-fluorophenyl)butoxy]-6-(2-(3,3-difluoropiperidin-1-yl)-ethoxy)-4-methyl-2-difluoromethyl-benzo[d]oxazole], the “Selectivity for Kv1.3 over Kv1.5” value in experiment [1] amounted to 29 fold. The IC50 in experiment [2] (setting [4]) and in experiment [2] (setting [5]) was less than 50 nM in each case. For the same compound, the “Selectivity for Kv1.3 over Kv1.1” value in experiment [3] was 21 fold.

In the case of `CC(=O)c1c(OCCN2CCOCC2)c(OCCC(C)c2ccc(F)cc2)c2oc(C)nc2c1Cl` (stereo not drawn) [Example 38h, 5-Acetyl-4-chloro-7-(3-(4-fluorophenyl)butoxy)-6-(2-(morpholin-4-yl)ethoxy)-2-methyl-benzo[d]oxazole], the IC50 in experiment [2] (setting [4]) was in the range of 50 to 200 nM.

Consider `CC(=O)c1c(OCCN2CCCC(F)(F)C2)c(OCCC(C)c2ccc(F)cc2)c2oc(C)nc2c1Cl` (stereo not drawn) [Example 39, 5-Acetyl-4-chloro-7-(3-(4-fluorophenyl)butoxy)-6-(2-(3,3-difluoropiperidin-1-yl)ethoxy)-2-methyl-benzo[d]oxazole], for which the IC50 in experiment [2] (setting [4]) lay in the range of 50 to 200 nM.

In the case of `CC(=O)c1c(OC2CCN(C3CCCC3)CC2)c(OCCC(C)c2ccc(F)cc2)c2oc(C)nc2c1C` (stereo not drawn) [Example 40c], the IC50 in experiment [2] (setting [4]) lay in the range of 50 to 200 nM.

For the compound `CC(=O)c1c(OC2CN(C3CCCC3)C2)c(OCCC(C)c2ccc(F)cc2)c2oc(C)nc2c1C` (stereo not drawn) [Example 41b], in experiment [2] (setting [4]), the IC50 was 50 to 200 nM.

With `CC(=O)c1c(OCCN2CCCCC2)c(OCCC(C)c2ccc(F)cc2)c2oc(C)nc2c1C` (stereo not drawn) [Example 42, 5-Acetyl-7-[3-(4-fluorophenyl)butoxy]-6-[2-(piperidin-1-yl)-ethoxy]-2,4-dimethyl-benzooxazole], the “Selectivity for Kv1.3 over Kv1.5” value in experiment [1] amounted to 24 fold. Also, the IC50 in experiment [2] (setting [4]) and in experiment [2] (setting [5]) was less than 50 nM in each case. Also, the “Selectivity for Kv1.3 over Kv1.1” value in experiment [3] was 25 fold.

For `CC(=O)c1c(OCCN2CCCC(F)(F)C2)c(OCCC(C)c2ccc(F)cc2)c2oc(C)nc2c1C` (stereo not drawn) [Example 43, 5-Acetyl-7-[3-(4-fluorophenyl)butoxy]-6-[2-(3,3-difluoropiperidin-1-yl)-ethoxy]-2,4-dimethyl-benzooxazole], in experiment [2] (setting [4]), the IC50 was less than 50 nM.
